In patent US11178873B2, “Cyclic N-carboxamide compounds useful as herbicides” (FMC CORPORATION, priority 2015, dated 2021):

Legend:
Type in all cases: in vivo
[1] = test system: barnyardgrass (Echinochloa crus-galli); assay: Test A preemergence, barnyardgrass; settings: 0 to 100 scale, 0 no effect, 100 complete control
Outline: (§1)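 Greenhouse pot test, loam/sand soil. Pre: directed soil spray at planting; post: foliar spray at 1–2 leaf stage, 2–10 cm height. Formulation: non-phytotoxic solvent + surfactant. Visual injury vs untreated controls at ~10 d, scored 0–100 (100 = complete control).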

[2] = test system: crabgrass, large (large crabgrass, Digitaria sanguinalis); assay: Test A preemergence, crabgrass, large; settings: 0 to 100 scale, 0 no effect, 100 complete control
Excerpt: (§2) Seeds of plant species selected from barnyardgrass (Echinochloa crus-galli), crabgrass, large (large crabgrass, Digitaria sanguinalis), kochia (Kochia scoparia), ragweed (common ragweed, Ambrosia elatior), morningglory (Ipomoea spp.), velvetleaf (Abutilon theophrasti), ryegrass, Italian (Italian ryegrass, Lolium multiflorum), foxtail, giant (giant foxtail, Setaria faberii), wheat (Triticum aestivum), corn (Zea mays), and pigweed (Amaranthus retroflexus), were planted into a blend of loam soil and sand and treated preemergence with a directed soil spray using test chemicals formulated in a non-phytotoxic solvent mixture which included a surfactant. At the same time, plants selected from these crop and weed species and also blackgrass (Alopecurus myosuroides), and galium (catchweed bedstraw, Galium aparine), were planted in pots containing the same blend of loam soil and sand and treated with postemergence applications of test chemicals formulated in the same manner. Plants ranged in height from 2 to 10 cm and were in the one- to two-leaf stage for the postemergence treatment. Treated plants and untreated controls were maintained in a greenhouse for approximately 10 d, after which time all treated plants were compared to untreated controls and visually evaluated for injury. Plant response ratings, summarized in Table A, are based on a 0 to 100 scale where 0 is no effect and 100 is complete control. A dash (-) response means no test result.

[3] = test system: morningglory (Ipomoea spp.); assay: Test A preemergence, morningglory; settings: 0 to 100 scale, 0 no effect, 100 complete control
Excerpt: as §2

[4] = test system: velvetleaf (Abutilon theophrasti); assay: Test A preemergence, velvetleaf; settings: 0 to 100 scale, 0 no effect, 100 complete control
Excerpt: as §2

[5] = test system: foxtail, giant (giant foxtail, Setaria faberii); assay: Test A preemergence, foxtail, giant; settings: 0 to 100 scale, 0 no effect, 100 complete control
Outline: as §1

[6] = test system: wheat (Triticum aestivum); assay: Test A preemergence, wheat; settings: 0 to 100 scale, 0 no effect, 100 complete control
Excerpt: as §2

corn (Zea mays) [7] = assay: Test A preemergence, corn; settings: 0 to 100 scale, 0 no effect, 100 complete control
Excerpt: as §2

[8] = test system: pigweed (Amaranthus retroflexus); assay: Test A preemergence, pigweed; settings: 0 to 100 scale, 0 no effect, 100 complete control
Outline: as §1

[9] = test system: barnyardgrass (Echinochloa crus-galli); assay: Test A postemergence, barnyardgrass; settings: 0 to 100 scale, 0 no effect, 100 complete control
Outline: as §1

[10] = test system: crabgrass, large (large crabgrass, Digitaria sanguinalis); assay: Test A postemergence, crabgrass, large; settings: 0 to 100 scale, 0 no effect, 100 complete control
Excerpt: as §2

[11] = test system: morningglory (Ipomoea spp.); assay: Test A postemergence, morningglory; settings: 0 to 100 scale, 0 no effect, 100 complete control
Excerpt: as §2

[12] = test system: velvetleaf (Abutilon theophrasti); assay: Test A postemergence, velvetleaf; settings: 0 to 100 scale, 0 no effect, 100 complete control
Excerpt: as §2

[13] = test system: foxtail, giant (giant foxtail, Setaria faberii); assay: Test A postemergence, foxtail, giant; settings: 0 to 100 scale, 0 no effect, 100 complete control
Outline: as §1

[14] = test system: wheat (Triticum aestivum); assay: Test A postemergence, wheat; settings: 0 to 100 scale, 0 no effect, 100 complete control
Outline: as §1

corn (Zea mays) [15] = assay: Test A postemergence, corn; settings: 0 to 100 scale, 0 no effect, 100 complete control
Outline: as §1

[16] = test system: pigweed (Amaranthus retroflexus); assay: Test A postemergence, pigweed; settings: 0 to 100 scale, 0 no effect, 100 complete control
Outline: as §1

[17] = test system: barnyardgrass (Echinochloa crus-galli); assay: Test B flooded paddy test, barnyardgrass; settings: Flood, 250 g ai/ha; scale 0 to 100 (0 no effect, 100 complete control); 13 to 15 d
Outline: (§3)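 Plants at the 2-leaf stage were flooded to 3 cm above soil, and test compounds were applied directly into the paddy water, which was held at that depth throughout. After 13 to 15 d in a greenhouse, injury was rated visually against untreated controls on a 0–100 scale (0 no effect, 100 complete control).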

[18] = test system: ducksalad (Heteranthera limosa); assay: Test B flooded paddy test, ducksalad; settings: Flood, 250 g ai/ha; scale 0 to 100 (0 no effect, 100 complete control); 13 to 15 d
Outline: as §3

rice (Oryza sativa) = assay: Test B flooded paddy test, rice; settings: Flood, 250 g ai/ha; scale 0 to 100 (0 no effect, 100 complete control); 13 to 15 d
Outline: as §3

[19] = test system: sedge, umbrella (small-flower umbrella sedge, Cyperus difformis); assay: Test B flooded paddy test, sedge, umbrella; settings: Flood, 250 g ai/ha; scale 0 to 100 (0 no effect, 100 complete control); 13 to 15 d
Outline: as §3

## O=C(Nc1ccccc1F)N1C(=O)OCC1c1ccc(Cl)cc1 (stereo not shown) [Compound 4]
[1]; 125 g ai/ha
  Plant response rating, Barnyardgrass: 0
[1]; 500 g ai/ha
  Plant response rating, Barnyardgrass: 0
[2]; 125 g ai/ha
  Plant response rating, Crabgrass, Large: 0
[2]; 500 g ai/ha
  Plant response rating, Crabgrass, Large: 20
[3]; 125 g ai/ha
  Plant response rating, Morningglory: 0
[3]; 500 g ai/ha
  Plant response rating, Morningglory: 0
[4]; 125 g ai/ha
  Plant response rating, Velvetleaf: 0
[4]; 500 g ai/ha
  Plant response rating, Velvetleaf: 0
[5]; 125 g ai/ha
  Plant response rating, Foxtail, Giant: 0
[5]; 500 g ai/ha
  Plant response rating, Foxtail, Giant: 0
[6]; 125 g ai/ha
  Plant response rating, Wheat: 0
[6]; 500 g ai/ha
  Plant response rating, Wheat: 0
Corn (Zea mays) [7]; 125 g ai/ha
  Plant response rating, Corn: 0
Corn (Zea mays) [7]; 500 g ai/ha
  Plant response rating, Corn: 0
[8]; 125 g ai/ha
  Plant response rating, Pigweed: 0
[8]; 500 g ai/ha
  Plant response rating, Pigweed: 0
[9]; 125 g ai/ha
  Plant response rating, Barnyardgrass: 0
[9]; 500 g ai/ha
  Plant response rating, Barnyardgrass: 0
[10]; 125 g ai/ha
  Plant response rating, Crabgrass, Large: 0
[10]; 500 g ai/ha
  Plant response rating, Crabgrass, Large: 0
[11]; 125 g ai/ha
  Plant response rating, Morningglory: 0
[11]; 500 g ai/ha
  Plant response rating, Morningglory: 0
[12]; 125 g ai/ha
  Plant response rating, Velvetleaf: 0
[12]; 500 g ai/ha
  Plant response rating, Velvetleaf: 0
[13]; 125 g ai/ha
  Plant response rating, Foxtail, Giant: 0
[13]; 500 g ai/ha
  Plant response rating, Foxtail, Giant: 0
[14]; 125 g ai/ha
  Plant response rating, Wheat: 0
[14]; 500 g ai/ha
  Plant response rating, Wheat: 0
Corn (Zea mays) [15]; 125 g ai/ha
  Plant response rating, Corn: 0
Corn (Zea mays) [15]; 500 g ai/ha
  Plant response rating, Corn: 0
[16]; 125 g ai/ha
  Plant response rating, Pigweed: 0
[16]; 500 g ai/ha
  Plant response rating, Pigweed: 0
[17]
  Plant response rating, Barnyardgrass: 0
[18]
  Plant response rating, Ducksalad: 0
Rice (Oryza sativa)
  Plant response rating, Rice: 0
[19]
  Plant response rating, Sedge, Umbrella: 0

## O=C(Nc1ccccc1C(F)(F)F)N1C(=O)OCC1c1ccc(F)c(F)c1 (stereo not shown) [Compound 1]
[1]; 125 g ai/ha
  Plant response rating, Barnyardgrass: 0
[1]; 500 g ai/ha
  Plant response rating, Barnyardgrass: 0
[2]; 125 g ai/ha
  Plant response rating, Crabgrass, Large: 30
[2]; 500 g ai/ha
  Plant response rating, Crabgrass, Large: 70
[3]; 125 g ai/ha
  Plant response rating, Morningglory: 0
[3]; 500 g ai/ha
  Plant response rating, Morningglory: 0
[4]; 125 g ai/ha
  Plant response rating, Velvetleaf: 0
[4]; 500 g ai/ha
  Plant response rating, Velvetleaf: 0
[5]; 125 g ai/ha
  Plant response rating, Foxtail, Giant: 0
[5]; 500 g ai/ha
  Plant response rating, Foxtail, Giant: 0
[6]; 125 g ai/ha
  Plant response rating, Wheat: 0
[6]; 500 g ai/ha
  Plant response rating, Wheat: 0
Corn (Zea mays) [7]; 125 g ai/ha
  Plant response rating, Corn: 0
Corn (Zea mays) [7]; 500 g ai/ha
  Plant response rating, Corn: 0
[8]; 125 g ai/ha
  Plant response rating, Pigweed: 0
[8]; 500 g ai/ha
  Plant response rating, Pigweed: 0
[9]; 125 g ai/ha
  Plant response rating, Barnyardgrass: 0
[9]; 500 g ai/ha
  Plant response rating, Barnyardgrass: 0
[10]; 125 g ai/ha
  Plant response rating, Crabgrass, Large: 0
[10]; 500 g ai/ha
  Plant response rating, Crabgrass, Large: 20
[11]; 125 g ai/ha
  Plant response rating, Morningglory: 0
[11]; 500 g ai/ha
  Plant response rating, Morningglory: 0
[12]; 125 g ai/ha
  Plant response rating, Velvetleaf: 0
[12]; 500 g ai/ha
  Plant response rating, Velvetleaf: 0
[13]; 125 g ai/ha
  Plant response rating, Foxtail, Giant: 0
[13]; 500 g ai/ha
  Plant response rating, Foxtail, Giant: 0
[14]; 125 g ai/ha
  Plant response rating, Wheat: 0
[14]; 500 g ai/ha
  Plant response rating, Wheat: 0
Corn (Zea mays) [15]; 125 g ai/ha
  Plant response rating, Corn: 0
Corn (Zea mays) [15]; 500 g ai/ha
  Plant response rating, Corn: 0
[16]; 125 g ai/ha
  Plant response rating, Pigweed: 0
[16]; 500 g ai/ha
  Plant response rating, Pigweed: 0
[17]
  Plant response rating, Barnyardgrass: 0
[18]
  Plant response rating, Ducksalad: 0
Rice (Oryza sativa)
  Plant response rating, Rice: 0
[19]
  Plant response rating, Sedge, Umbrella: 0

## O=C(Nc1ccccc1Cl)N1C(=O)OCC1c1ccc(F)c(F)c1 (stereo not shown) [Compound 2]
[1]; 125 g ai/ha
  Plant response rating, Barnyardgrass: 0
[1]; 500 g ai/ha
  Plant response rating, Barnyardgrass: 0
[2]; 125 g ai/ha
  Plant response rating, Crabgrass, Large: 40
[2]; 500 g ai/ha
  Plant response rating, Crabgrass, Large: 80
[3]; 125 g ai/ha
  Plant response rating, Morningglory: 0
[3]; 500 g ai/ha
  Plant response rating, Morningglory: 0
[4]; 125 g ai/ha
  Plant response rating, Velvetleaf: 0
[4]; 500 g ai/ha
  Plant response rating, Velvetleaf: 0
[5]; 125 g ai/ha
  Plant response rating, Foxtail, Giant: 0
[5]; 500 g ai/ha
  Plant response rating, Foxtail, Giant: 30
[6]; 125 g ai/ha
  Plant response rating, Wheat: 0
[6]; 500 g ai/ha
  Plant response rating, Wheat: 0
Corn (Zea mays) [7]; 125 g ai/ha
  Plant response rating, Corn: 0
Corn (Zea mays) [7]; 500 g ai/ha
  Plant response rating, Corn: 0
[8]; 125 g ai/ha
  Plant response rating, Pigweed: 0
[8]; 500 g ai/ha
  Plant response rating, Pigweed: 0
[9]; 125 g ai/ha
  Plant response rating, Barnyardgrass: 0
[9]; 500 g ai/ha
  Plant response rating, Barnyardgrass: 0
[10]; 125 g ai/ha
  Plant response rating, Crabgrass, Large: 0
[10]; 500 g ai/ha
  Plant response rating, Crabgrass, Large: 0
[11]; 125 g ai/ha
  Plant response rating, Morningglory: 0
[11]; 500 g ai/ha
  Plant response rating, Morningglory: 0
[12]; 125 g ai/ha
  Plant response rating, Velvetleaf: 0
[12]; 500 g ai/ha
  Plant response rating, Velvetleaf: 0
[13]; 125 g ai/ha
  Plant response rating, Foxtail, Giant: 0
[13]; 500 g ai/ha
  Plant response rating, Foxtail, Giant: 0
[14]; 125 g ai/ha
  Plant response rating, Wheat: 0
[14]; 500 g ai/ha
  Plant response rating, Wheat: 0
Corn (Zea mays) [15]; 125 g ai/ha
  Plant response rating, Corn: 0
Corn (Zea mays) [15]; 500 g ai/ha
  Plant response rating, Corn: 0
[16]; 125 g ai/ha
  Plant response rating, Pigweed: 0
[16]; 500 g ai/ha
  Plant response rating, Pigweed: 0
[17]
  Plant response rating, Barnyardgrass: 0
[18]
  Plant response rating, Ducksalad: 0
Rice (Oryza sativa)
  Plant response rating, Rice: 0
[19]
  Plant response rating, Sedge, Umbrella: 0

## O=C1NCC(c2ccccc2)N1C(=O)Nc1ccccc1 (stereo not shown) [Compound 6]
[1]; 1000 g ai/ha
  Plant response rating, Barnyardgrass: 0
[2]; 1000 g ai/ha
  Plant response rating, Crabgrass, Large: 50
[3]; 1000 g ai/ha
  Plant response rating, Morningglory: 0
[4]; 1000 g ai/ha
  Plant response rating, Velvetleaf: 0
[5]; 1000 g ai/ha
  Plant response rating, Foxtail, Giant: 0
[6]; 1000 g ai/ha
  Plant response rating, Wheat: 0
Corn (Zea mays) [7]; 1000 g ai/ha
  Plant response rating, Corn: 0
[8]; 1000 g ai/ha
  Plant response rating, Pigweed: 0
[9]; 1000 g ai/ha
  Plant response rating, Barnyardgrass: 0
[10]; 1000 g ai/ha
  Plant response rating, Crabgrass, Large: 0
[11]; 1000 g ai/ha
  Plant response rating, Morningglory: 0
[12]; 1000 g ai/ha
  Plant response rating, Velvetleaf: 0
[13]; 1000 g ai/ha
  Plant response rating, Foxtail, Giant: 0
[14]; 1000 g ai/ha
  Plant response rating, Wheat: 0
Corn (Zea mays) [15]; 1000 g ai/ha
  Plant response rating, Corn: 0
[16]; 1000 g ai/ha
  Plant response rating, Pigweed: 0
